Where two headings read alike, the source gives them in different places. Starred links: 1 amine or outer side, 2 acyl side, 3 side chain; linkers in the order of their positions; H or OH if unused. Non-standard residues stand in square brackets, D forms with d. Groups on a side chain read outwards from the residue. No end group written: not given here. *: point of attachment. C20 diacid = O=C(O)CCCCCCCCCCCCCCCCCCC(=O)*; γGlu = O=C(O)[C@H](CCC(=O)[*:2])N[*:1]; εLys = N[C@@H](CCCCN[*:1])C(=O)[*:2]; Aib = CC(C)(N)C(=O)O

What all share (assay type): cell-based
Common to all, as to conditions: CreLuc reporter gene assay
Background: Reporter assays use an easily measured gene product as a stand-in for the process of interest.

The target in one assay is T1, hGLP1R (Homo sapiens, UniProt P43220).
T1 construct: expressed in transfected cells; host or cells: HEK-293 cells carrying a CRE-luciferase reporter gene
T1 sequence (P43220 24-463): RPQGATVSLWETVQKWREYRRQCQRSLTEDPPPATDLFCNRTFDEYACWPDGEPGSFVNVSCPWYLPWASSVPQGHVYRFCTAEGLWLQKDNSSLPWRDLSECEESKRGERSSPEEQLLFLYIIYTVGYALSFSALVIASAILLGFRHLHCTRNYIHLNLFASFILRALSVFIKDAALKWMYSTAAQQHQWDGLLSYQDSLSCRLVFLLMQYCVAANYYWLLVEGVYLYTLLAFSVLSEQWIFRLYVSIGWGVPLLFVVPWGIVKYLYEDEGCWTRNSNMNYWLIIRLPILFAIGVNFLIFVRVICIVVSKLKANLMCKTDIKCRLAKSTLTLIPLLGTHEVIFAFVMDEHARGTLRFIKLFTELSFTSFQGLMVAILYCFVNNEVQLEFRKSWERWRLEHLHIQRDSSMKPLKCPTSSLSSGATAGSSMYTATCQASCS
The assay is described as follows: hGLP1R CreLuc reporter gene assay in 0.5% and 100% plasma. An outline of the steps: (§1)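 HEK cells (GLP-1R, NPY2R) or CHO cells (GIPR) carrying a CRE-luciferase reporter, incubated 4 h at 37 °C with peptides in HBSS/20 mM HEPES pH 7.4 plus 0.5% human plasma, or in 100% plasma. Luminescence read; EC50 from 8-point variable-slope sigmoid fits.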

The target of a further assay is T2, hGIPR (Homo sapiens, UniProt P48546).
T2 construct: expressed in transfected cells; host or cells: CHO cells carrying a CRE-luciferase reporter gene
T2 sequence (P48546 22-466): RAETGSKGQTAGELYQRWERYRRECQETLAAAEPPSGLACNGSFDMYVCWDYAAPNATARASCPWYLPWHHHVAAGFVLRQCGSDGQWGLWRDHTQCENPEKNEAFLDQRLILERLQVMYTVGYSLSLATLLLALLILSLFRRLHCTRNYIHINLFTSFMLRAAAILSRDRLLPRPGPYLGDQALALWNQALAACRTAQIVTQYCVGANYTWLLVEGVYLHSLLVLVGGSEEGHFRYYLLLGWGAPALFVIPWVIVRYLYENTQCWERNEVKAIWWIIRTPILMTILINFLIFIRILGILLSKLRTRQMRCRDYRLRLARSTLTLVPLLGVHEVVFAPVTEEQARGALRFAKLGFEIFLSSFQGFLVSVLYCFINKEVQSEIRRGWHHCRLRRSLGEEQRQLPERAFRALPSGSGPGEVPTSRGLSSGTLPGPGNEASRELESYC
Nature of the assay: hGIPR CreLuc reporter gene assay in 0.5% and 100% plasma. In outline:
as §1

A further assay concerns the target T3, hNPY2R (Homo sapiens, UniProt P49146).
T3 construct: expressed in transfected cells; host or cells: HEK-293 cells carrying a CRE-luciferase reporter gene
T3 sequence (P49146 1-381): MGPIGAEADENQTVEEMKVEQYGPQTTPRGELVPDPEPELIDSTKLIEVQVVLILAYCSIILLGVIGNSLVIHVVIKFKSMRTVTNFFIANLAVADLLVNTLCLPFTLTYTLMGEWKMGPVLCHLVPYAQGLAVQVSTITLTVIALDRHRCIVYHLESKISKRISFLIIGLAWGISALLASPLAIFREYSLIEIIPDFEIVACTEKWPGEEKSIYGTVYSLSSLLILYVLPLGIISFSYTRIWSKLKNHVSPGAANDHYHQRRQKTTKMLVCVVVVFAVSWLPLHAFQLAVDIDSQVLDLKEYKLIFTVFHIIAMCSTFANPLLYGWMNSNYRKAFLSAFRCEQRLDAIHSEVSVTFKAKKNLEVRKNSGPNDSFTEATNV
The assay is described as follows: hNPY2R CreLuc reporter gene assay in 0.5% and 100% plasma. The text has this: Example 1: hGLPR/hGIPR/hNPY2R CreLuc Assay in 0.5% and 100% Plasma
CHO and HEK-293 recombinant cell lines express a luciferase reporter gene under control of the cAMP responsive element (CRE). As a second recombinant protein the GLP-1 and NPY2 receptors were expressed in the reporter gene HEK cells, and the GIP receptor was expressed in the reporter gene CHO cells, respectively. Stimulation of these recombinant cells with an agonist leads to an increase of intracellular cAMP levels. In the presence of cAMP, the transcription factor CRE binding protein (CREB) binds to the CRE and to the CREB binding protein (CBP), which leads to transcription of the luciferase reporter gene. Peptides upon serial-dilution in 100% DMSO were transferred into 384-well assay plates with 5 μl pre-dispensed assay buffer (1×HBSS, 20 mM HEPES, pH7.4 supplemented with 0.5% human plasma) using acoustic dispensing on a Labcyte ECHO. Cryo-preserved transgenic reporter gene cells were thawed in assay buffer. 20 μl (10.000 cells/well) were added to the plate with the peptides and incubated for 4 hours at 37° C. in a humidified incubator. Following incubation, assay plates are equilibrated to room temperature, followed by addition of 25 μl of Bright-GIo™ Luciferase reagent, incubation at room temperature for 10 minutes and analysis of luminescence (Envision Reader). Concentration response evaluation of compounds was performed with 8 concentrations of peptides (covering four decades). EC50 values were calculated by non-linear regression using sigmoid concentration-response with variable slope. The same assays were run in the presence of 100% plasma with no additional buffer constituents.

Where [1] appears, read: 0.5% human plasma, read-out: hGLP1R 0.5% hP.
Setting [2] is: 0.5% human plasma, read-out: hNPY2R 0.5% hP.
Setting [3] is: 100% human plasma, read-out: hNPY2R 100% hP.
[4] abbreviates: 100% human plasma, read-out: hGLP1R 100% hP.

For the molecule `CC[C@H](C)[C@H](NC(=O)[C@H](CC(C)C)NC(=O)[C@H](Cc1c[nH]c2ccccc12)NC(=O)[C@H](CCC(=O)O)NC(=O)[C@@H](NC(=O)[C@H](Cc1ccccc1)NC(=O)[C@H](C)NC(=O)C(C)(C)NC(=O)[C@H](CCC(N)=O)NC(=O)[C@H](C)NC(=O)[C@H](CCC(N)=O)NC(=O)[C@H](CCCCN)NC(=O)[C@H](CCC(=O)O)NC(=O)[C@H](CC(C)C)NC(=O)C(C)(C)NC(=O)[C@@H](NC(=O)[C@H](CO)NC(=O)[C@H](Cc1ccc(O)cc1)NC(=O)[C@H](CC(=O)O)NC(=O)[C@H](CO)NC(=O)[C@@H](NC(=O)[C@H](Cc1ccccc1)NC(=O)[C@@H](NC(=O)CNC(=O)[C@H](CCC(=O)O)NC(=O)C(C)(C)NC(=O)[C@@H](N)Cc1ccc(O)cc1)[C@@H](C)O)[C@@H](C)O)[C@@H](C)CC)C(C)C)C(=O)N[C@@H](CCCCNC(=O)[C@@H](N)CCCCNC(=O)CC[C@H](NC(=O)CC[C@H](NC(=O)CC[C@H](NC(=O)CC[C@H](NC(=O)CC[C@H](NC(=O)CC[C@H](NC(=O)CCCCCCCCCCCCCCCCCCC(=O)O)C(=O)O)C(=O)O)C(=O)O)C(=O)O)C(=O)O)C(=O)O)C(=O)NCC(=O)NCC(=O)N1CCC[C@H]1C(=O)N[C@@H](CO)C(=O)N[C@@H](CO)C(=O)NCC(=O)N[C@@H](C)C(=O)N[C@@H](CO)C(=O)N[C@H](CC(C)C)C(=O)N[C@@H](CCCNC(=N)N)C(=O)N[C@H](Cc1c[nH]cn1)C(=O)N[C@@H](Cc1ccc(O)cc1)C(=O)N[C@@H](Cc1ccc(O)cc1)C(=O)N[C@@H](CC(N)=O)C(=O)N[C@@H](Cc1c[nH]c2ccccc12)C(=O)N[C@@H](CC(C)C)C(=O)N[C@H](C(=O)N[C@H](CCCNC(=N)N)C(=O)N[C@@H](CCC(N)=O)C(=O)N[C@@H](CCCNC(=N)N)C(=O)N[C@H](Cc1ccc(O)cc1)C(N)=O)[C@@H](C)O` [Compound 5, Y-Aib-E-G-T-F-T-S-D-Y-S-I-Aib-L-E-K-Q-A-Q-Aib-A-F-V-E-W-L-I-K(1,3)-G-G-P-S-S-G-A-S-DLeu-R-DHis-Y-Y-N-W-L-T-DArg-Q-R-DTyr-NH2.C20DA-gGlu-gGlu-gGlu-gGlu-gGlu-gGlu-eLys(1,2)], the EC50 on hGLP1R (setting [1]) is 0.11 nM; at hGIPR (0.5% human plasma, read-out: hGIPR 0.5% hP) it was 0.17 nM; at hGIPR (100% human plasma, read-out: hGIPR 100% hP), 1.07 nM; on hNPY2R (setting [2]), more than 99.9 nM; at hNPY2R (setting [3]) it was more than 999 nM.
In the case of “H-Y[Aib]EGTFTSDYSI[Aib]LEKQAQ[Aib]AFVEWLIK([εLys-γGlu-γGlu-γGlu-γGlu-γGlu-γGlu-C20 diacid])GGPSSAASLRHYYNWLTRQRY-NH2 [Compound 98, Y-Aib-E-G-T-F-T-S-D-Y-S-I-Aib-L-E-K-Q-A-Q-Aib-A-F-V-E-W-L-I-K(1,3)-GGPSSAASLRHYYNWLTRQRY-NH2.C20DA-gGlu-gGlu-gGlu-gGlu-gGlu-gGlu-eLys(1,2)]”, the EC50 was found to be 0.31 nM on hGLP1R (setting [1]) and 15.1 nM on hNPY2R (setting [2]).
For “H-Y[Aib]EGTFTSDYSI[Aib]LEKQAQ[Aib]AFVQWLIK([εLys-γGlu-γGlu-γGlu-γGlu-γGlu-γGlu-C20 diacid])GGPSYYVSLRHYYNWLTRQRY-NH2 [Compound 19, Y-Aib-E-G-T-F-T-S-D-Y-S-I-Aib-L-E-K-Q-A-Q-Aib-A-F-V-Q-W-L-I-K(1,3)-GGPSYYVSLRHYYNWLTRQRY-NH2.C20DA-gGlu-gGlu-gGlu-gGlu-gGlu-gGlu-eLys(1,2)]”, the figures for the EC50 at hGLP1R (setting [1]), at hGLP1R (setting [4]) and on hNPY2R (setting [3]) were 0.5 nM, 10.2 nM and 19.3 nM, respectively.
Take “H-Y[Aib]EGTFTSDYSI[Aib]LEKQAQ[dD]AFVEWLIK([εLys-γGlu-γGlu-γGlu-γGlu-γGlu-γGlu-C20 diacid])GGPSSGASLRHYYNWLTRQRY-NH2 [Compound 211, Y-Aib-E-G-T-F-T-S-D-Y-S-I-Aib-L-E-K-Q-A-Q-DAsp-A-F-V-E-W-L-I-K(1,3)-GGPSSGASLRHYYNWLTRQRY-NH2.C20DA-gGlu-gGlu-gGlu-gGlu-gGlu-gGlu-eLys(1,2)]”: the EC50 came to 0.74 nM at hGLP1R (setting [1]), 11.2 nM on hNPY2R (setting [2]) and 56.3 nM on hNPY2R (setting [3]).
Turning to “H-Y[Aib]EGTFTSDYSI[Aib]LEKQAQ[dR]AFVEWLIK([εLys-γGlu-γGlu-γGlu-γGlu-γGlu-γGlu-C20 diacid])GGPSSGASLRHYYNWLTRQRY-NH2 [Compound 216, Y-Aib-E-G-T-F-T-S-D-Y-S-I-Aib-L-E-K-Q-A-Q-DArg-A-F-V-E-W-L-I-K(1,3)-GGPSSGASLRHYYNWLTRQRY-NH2.C20DA-gGlu-gGlu-gGlu-gGlu-gGlu-gGlu-eLys(1,2)]”, the EC50 turned out to be 0.31 nM on hGLP1R (setting [1]) and 16.8 nM at hNPY2R (setting [3]).
In the case of “H-Y[Aib]EGTFTSDYSI[Aib]LE[Aib]EAQ[Aib]KFVEWLIK([εLys-γGlu-γGlu-γGlu-γGlu-γGlu-γGlu-C20 diacid])GGPSSGASLRHYYNWLTRQRY-NH2 [Compound 16, Y-Aib-E-G-T-F-T-S-D-Y-S-I-Aib-L-E-Aib-E-A-Q-Aib-K-F-V-E-W-L-I-K(1,3)-GGPSSGASLRHYYNWLTRQRY-NH2.C20DA-gGlu-gGlu-gGlu-gGlu-gGlu-gGlu-eLys(1,2)]”, the EC50 at hGLP1R (setting [1]) came out at 1.48 nM; at hNPY2R (setting [2]) it was 28.8 nM; at hNPY2R (setting [3]), 197 nM.
Turning to “Y[Aib]EGTFTSDYSI[Aib]LEKQAQ[Aib]AFVEWLIK([γGlu-γGlu-γGlu-γGlu-γGlu-C20 diacid])GGPSSGASLRHYYNWLTRQRY-NH2 [Compound 238, Y-Aib-E-G-T-F-T-S-D-Y-S-I-Aib-L-E-K-Q-A-Q-Aib-A-F-V-E-W-L-I-K(1,3)-GGPSSGASLRHYYNWLTRQRY-NH2.C20DA-gGlu-gGlu-gGlu-gGlu-gGlu(1,2)]”, the values for the EC50 at hGLP1R (setting [1]), at hGLP1R (setting [4]) and on hNPY2R (setting [2]) were 0.1 nM, 2.55 nM and 11.6 nM, respectively.

The record behind these values is patent publication US20240247080A1, “GLP1/GIP/NPY2 RECEPTOR TRIPLE AGONISTS” (Boehringer Ingelheim International GmbH, priority 2022, published 2024).
